“Also recorded” adds a separate entry of the source. Where no end group is shown, it is not given here.
Assays:
[1] = tested on: ROS generation in LNCaP cells; assay: ROS generation (CM-H2DCFDA), LNCaP/C81 cells; type: cell-based; details: Fig. 4A
Protocol: Intracellular ROS levels were evaluated using the fluorescent probe 5-(and-6)-chloromethyl-2′,7′-dichlorodihydrofluorescein diacetate (CM-H2DCFDA) (Invitrogen). After treatments with Peptide A-8R, C81 cells were loaded with 20 µM CM-H2DCFDA and incubated at 37°C for 30 min in the dark. Cells were then washed with PBS and fluorescence was measured at the excitation and emission wavelengths of 490 and 535 nm, respectively, using a multi-well fluorescence plate reader. For NAC (N-acetyl cysteine) (Sigma) rescue experiment, cells were pretreated with 1 or 5 mM NAC for 2 hours before adding Peptide A-8R.
Figure 4 Peptide A-8R kills prostate cancer cells by mediating ROS generation. (A) C81 cells were treated with Vehicle or different µMolar concentrations of Peptide A-8R and without or with 0–5 mM NAC and monitored for ROS generation after 0–30 min as measured by fluorescence intensity (FI). Bar graphs represent averages of three independent experiments plus standard deviations. Note that asterisks on bar graphs found with NAC are compared to equivalent data without NAC. (B) C81 cells were treated with Vehicle or different concentrations of Peptide A-8R, as shown, and 0–5 mM NAC, as shown, and monitored for cell number after 0–6 days of incubation as measured by MTT assay. Data points represent averages of three independent experiments plus standard deviations. Asterisks indicate statistical significance (P<0.04). (C) C81 cells were treated with Vehicle or different concentrations of Peptide A-8R, as shown, and with or without 5 mM NAC, as shown, and monitored DNA damage after 1 hr incubation as measured by Comet assay.

LNCaP cells [2] = assay: AKT over-expression (adenovirus) rescue of Peptide A-8R-treated cells; type: cell-based; details: 10- 50 µM Peptide A-8R; 10% serum; 0–6 days; Fig. S4D
AKT = assay: Western blot of AKT in xenograft tumors; type: in vivo; details: mouse xenograft tumors; Fig. S4B
Protocol: Western blotting was performed as described using primary antibodies against sGCα1 (Cayman Chemical), pan-Akt (Cell Signaling Technology), phospho-AKT (S473, T308) (Cell Signaling Technology), phospho-PDK1 (Cell Signaling Technology), phospho-GSK-3β (Cell Signaling Technology), PARP (Cell Signaling Technology), and β-Actin (Abcam).
2×10^6 C81 cells in 50 µL of growth medium was mixed with 50 µL Matrigel (BD Biosciences) and injected into both flanks of 4–6-week old SCID male mice. When tumor sizes reached 200 mm^3, 50 µL of Peptide A-8R (40 mg Peptide A-8R/Kg of animal) or Vehicle (DMSO) was directly injected into the tumors every other day. Injections were stopped after 5 times and tumors were measured every 3 days. Mice were euthanized after 3 weeks and tumors were excised. All procedures were approved by the University of Toledo Division of Lab Animal Recourses (DLAR). Protein extracts were prepared by boiling the tumor tissue in 3× SDS buffer, and evaluated by SDS-PAGE gel.
Supplementary file pone.0064189.s004.tif: Figure S4 Peptide A-mediated down-regulation of AKT is not involved in its cytotoxicity to prostate cancer cells. […] Cell number was measured after 0–6 days of incubation. […]

LNCaP cells [3] = assay: Proliferation/cytotoxicity, LNCaP cells (MTT); type: cell-based; details: different concentrations, averages of three independent experiments
Protocol: LNCaP, C81, PC-3 and Cos cells were grown as previously described. CWR-22Rv1 cells were cultured in RMPI-1640 medium with 10% FBS and 50 µg/ml Gentamicin (Gibco). Control siRNA, sGCα1 siRNA and AKT siRNA (Dharmacon) at 50 nM final concentration was transfected into cells using Lipofectamine siMAX (Invitrogen).
For proliferation, cells were grown in medium containing 2% FBS extracted with dextran-coated charcoal (DCC). 48 hours later, ethanol or 1 nM R1881 was added to the cells followed by peptide treatment. The MTT assay (Sigma) was used as before to determine cell number. For apoptosis, 5000 cells were seeded in 96-well plates and treated with Vehicle (DMSO), Peptide A-8R (25 µM), Etoposide (50 µM) (Sigma) at different time points. The Caspase (3/7) activity was measured using Apo-ONE Homogeneous Caspase-3/7 assay kit (Promega). PARP cleavage was also used to measure apoptosis, and is described below.
(A) Four peptides were designed targeting sGCα1, with each peptide containing eight arginines at the C-terminus for membrane translocation. (B) LNCaP cells were grown in 10% serum under different concentrations of the four peptides, as shown. Cell number was measured after 0–4 days of incubation. Data points represent averages of three independent experiments plus standard deviations. Asterisks indicate statistical significance (P<0.0002) of Peptide A activity, relative to Vehicle.
Figure 2 Peptide A-8R interacts with sGCα1 in prostate cancer cells. (A) LNCaP cells were treated with 25 µM Biotin-labeled Peptide A-8R for 2 hrs and subjected to immunocytochemistry using anti-sGCα1 or anti-Biotin antibody to measure subcellular co-localization of endogenous sGCα1 and Peptide A-8R. DAPI was used to stain nuclei. (B) LNCaP cytosolic extracts were incubated with Peptide A-8R-Biotin and subjected to purification using streptavidin-agarose. This pull-down experiment was repeated with competing excess amount of unlabeled Peptide C-8R or Peptide A-8R. […] Co-purified Peptide A-8R-FITC was quantified by measuring fluorescence signal emission. […] Cell number was measured after 0–48 hrs of incubation. […]

Ac-TFCKAFPFHIIRRRRRRRR [Peptide A-8R]
ROS induction ([1]; 0–30 min, fluorescence 490/535 nm, S5B, averages of three independent experiments): significant ROS induction in LNCaP cells within 30 minutes | ROS generation at 50 µM ([1]; 50 µM): decreased with 50 µM; also recorded: minimal ROS induction; also recorded: lowest induction of ROS | ROS generation, concentration dependence ([1]; 10 to 25 µM): rose when Peptide A-8R concentration was increased from 10 to 25 µM | rescue by adenovirus-expressed AKT (LNCaP cells [2]): unable to rescue | effect on AKT protein level in tumors (AKT): same negative effect on AKT protein levels; also recorded: significantly reduces AKT protein levels | cytotoxic activity / cell number, LNCaP (LNCaP cells [3]; 10% serum, 0–4 days, Fig. 1B, P<0.0002 Peptide A vs Vehicle): strong, dose-dependent, cytotoxic activity, killing nearly all cells by day 4; also recorded: strongly cytotoxic to prostate cancer cells | cytotoxic effect with or without 8-arginine sequence (LNCaP cells [3]; LNCaP, MTT, Fig. S2, P<0.005): strong cytotoxic effect

Source: paper PMC3664642, “A Peptide against Soluble Guanylyl Cyclase α1: A New Approach to Treating Prostate Cancer” (PLoS ONE, 2013)
